{"source": "patent US11253524B2", "about": "(Gilead Sciences, Inc., priority 2018, dated 2022)", "key": {"[1]": {"test": "In vivo BIC metabolism, plasma profile after oral [14C]BIC, rat", "design": "species or system Wistar Han Rat", "details": "rats, 0 to 168 hours post dose, ND = not detected", "excerpt": "(§1) Metabolic pathways included hydroxylation, oxidative defluorination, direct glucuronidation, and oxidation followed by phase II conjugation. In the monkey, BIC was metabolized through the oxidative pathways to a greater extent compared to rat and human."}, "[2]": {"test": "In vivo BIC metabolism, plasma profile after oral [14C]BIC, monkey", "design": "species or system Cynomolgus Monkey", "details": "monkeys, 0 to 72 hours post dose, ND = not detected", "excerpt": "as §1"}, "OATP1B1": {"target": "T1, OATP1B1 (Homo sapiens, UniProt Q9Y6L6)", "T1 sequence (Q9Y6L6 1-691)": "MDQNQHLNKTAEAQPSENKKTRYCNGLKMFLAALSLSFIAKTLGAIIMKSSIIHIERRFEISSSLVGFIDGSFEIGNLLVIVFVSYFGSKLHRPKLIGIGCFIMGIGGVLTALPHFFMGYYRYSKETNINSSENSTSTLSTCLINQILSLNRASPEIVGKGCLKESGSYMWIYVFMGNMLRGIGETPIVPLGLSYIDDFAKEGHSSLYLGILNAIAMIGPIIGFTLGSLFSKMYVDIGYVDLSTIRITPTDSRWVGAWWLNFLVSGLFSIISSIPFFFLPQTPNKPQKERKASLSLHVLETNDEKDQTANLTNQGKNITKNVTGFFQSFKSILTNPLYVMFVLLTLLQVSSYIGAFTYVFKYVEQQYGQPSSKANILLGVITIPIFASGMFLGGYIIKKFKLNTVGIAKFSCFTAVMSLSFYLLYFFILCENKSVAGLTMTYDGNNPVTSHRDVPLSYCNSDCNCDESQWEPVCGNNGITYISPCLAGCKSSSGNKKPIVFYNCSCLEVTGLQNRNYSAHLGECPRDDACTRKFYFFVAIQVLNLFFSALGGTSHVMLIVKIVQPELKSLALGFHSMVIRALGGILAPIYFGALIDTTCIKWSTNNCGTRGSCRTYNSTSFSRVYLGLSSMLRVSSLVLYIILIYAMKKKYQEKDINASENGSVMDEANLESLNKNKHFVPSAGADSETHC", "test": "OATP1B1 inhibition assay using Fluo-3 as probe substrate, CHO cells", "type": "cell-based", "design": "expressed in transfected cells; host or cells: CHO cells", "details": "for IC50: OATP1B1, Fluo-3; for inhibition at 1 h, 100 µM: human, CHO cells transfected with human OATP1B1, pH 7.4, probe Fluo-3 (2 μM), OATP1B1, Fluo-3, at 100 μM, read-out: Maximum inhibition at highest test conc. (% of control)", "protocol": "(§2) Chinese Hamster Ovary (CHO) cells, either wild type or transfected with the genes encoding human OATP1B1 or OATP1B3, were maintained in Dulbecco's Modification of Eagle's Medium (DMEM) containing 1,000 mg/L D-glucose, L-glutamine, 25 mM HEPES buffer, and 110 mg/L sodium pyruvate, 1% Pen/Strep, 10% fetal bovine serum, 0.05 mg/mL L-proline and 0.5 mg/mL of geneticin G-418. Cells were maintained in incubators set at 37° C., 90% humidity and 5% CO2. OATP1B1 or OATP1B3 overexpressing CHO cells were seeded in BioCoat Poly-D-Lysine coated 96 well black cell culture plates with clear bottoms at a density of 1×10^5 cells/well. Sodium butyrate (10 mM) was added to the OATP1B1 and OATP1B3 cells to increase the protein expression level, and the cells were grown to confluence overnight. The assay buffer contained 142 mM NaCl, 5 mM KCl, 1 mM KH2PO4, 1.2 mM MgSO4, 1.5 mM CaCl2, 5 mM Glucose and 12.5 mM HEPES (pH 7.4). After removal of the media and before adding test compounds, the cells were washed twice with 37° C. assay buffer followed by a 0.5 h pre-incubation with assay buffer. Test compounds were serially diluted in DMSO at 250-fold of final test concentrations to create the compound spiking solutions. Compounds were then spiked into assay buffer containing 2 μM Fluo-3 and incubated with cells for 1 h. Following removal of assay buffer containing Fluo-3 and test compound, cells were washed 3 times with 200 μl of ice cold assay buffer and then lysed at room temperature for 15 minutes in a lysis buffer containing […] in a 1 mM CaCl2 solution. Substrate accumulations were determined for Fluo-3 fluorescence at an excitation of 485 nm and emission of 530 nm.\n(§3) Percent inhibition was calculated according to the following equation: % inhibition=[1−{[OATP]i−[WT]ni}/{[OATP]ni−[WT]ni}]*100 where: [OATP]i represent the substrate accumulation in the presence of test compound for either OATP1B1, OATP1B3, or OATP2B1 cells; [OATP]ni represents the substrate accumulation in the absence of test compound for either OATP1B1, OATP1B3, or OATP2B1 cells, respectively; and [WT]ni represents the substrate accumulation in the absence of test compound for wild type cells or Mock cells, respectively. IC50 Determination in Transporter Assays\n(§4) IC50 was determined according to the procedures described in Example 5. […] Results are reported as NIO (no interaction observed)."}, "OATP1B3": {"target": "T2, OATP1B3 (Homo sapiens, UniProt Q9NPD5)", "T2 sequence (Q9NPD5 1-702)": "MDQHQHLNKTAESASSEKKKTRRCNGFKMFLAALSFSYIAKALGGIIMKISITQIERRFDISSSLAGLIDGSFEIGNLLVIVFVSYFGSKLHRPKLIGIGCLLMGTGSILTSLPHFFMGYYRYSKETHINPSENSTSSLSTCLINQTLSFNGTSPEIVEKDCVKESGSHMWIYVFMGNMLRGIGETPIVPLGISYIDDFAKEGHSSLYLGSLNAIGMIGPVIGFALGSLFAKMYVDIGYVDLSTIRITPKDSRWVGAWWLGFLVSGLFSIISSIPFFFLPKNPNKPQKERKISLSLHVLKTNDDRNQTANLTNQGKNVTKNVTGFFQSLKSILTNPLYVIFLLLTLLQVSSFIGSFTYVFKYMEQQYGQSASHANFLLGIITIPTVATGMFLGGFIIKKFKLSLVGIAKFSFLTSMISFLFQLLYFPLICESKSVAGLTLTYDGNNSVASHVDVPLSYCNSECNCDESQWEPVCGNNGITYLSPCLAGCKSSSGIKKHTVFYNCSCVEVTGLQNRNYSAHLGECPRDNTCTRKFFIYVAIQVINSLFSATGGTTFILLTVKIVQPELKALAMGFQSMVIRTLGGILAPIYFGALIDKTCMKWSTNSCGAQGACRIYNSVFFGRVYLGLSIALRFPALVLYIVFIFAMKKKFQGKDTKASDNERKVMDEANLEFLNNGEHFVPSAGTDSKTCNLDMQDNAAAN", "test": "OATP1B3 inhibition assay using Fluo-3 as probe substrate, CHO cells", "type": "cell-based", "design": "expressed in transfected cells; host or cells: CHO cells", "details": "for Maximum inhibition at highest test conc. (% of control) / inhibition at 1 h, 100 µM: OATP1B3, Fluo-3, at 100 μM; for IC50 (μM): OATP1B3, Fluo-3, NIO = no interaction observed; for inhibition at 1 h, 100 µM: human, CHO cells transfected with human OATP1B3, pH 7.4, probe Fluo-3 (2 μM), read-out: Maximum inhibition at highest test conc. (% of control)", "protocol": "as §2, §3, §4"}}, "data": [{"smiles": "O=C(NCc1c(F)cc(F)cc1F)c1cn2c(c(O)c1=O)C(=O)N1[C@H]3CC[C@H](C3)O[C@@H]1C2", "note": "[BIC, bictegravir, reference compound]", "values": [{"measurement": "% of Total Radioactivity in AUC Pooled Plasma", "setting": "[1]", "value": 76.5, "unit": "%"}, {"measurement": "% of Total Radioactivity in AUC Pooled Plasma", "setting": "[2]", "value": 80.2, "unit": "%"}]}, {"smiles": "O=C(NCc1c(F)cc(F)cc1F)c1cn2c(c(O[C@@H]3O[C@H](C(=O)O)[C@@H](O)[C@H](O)[C@H]3O)c1=O)C(=O)N1[C@H]3CC[C@H](C3)O[C@@H]1C2", "note": "[Metabolite M15]", "values": [{"measurement": "% of Total Radioactivity in AUC Pooled Plasma", "setting": "[2]", "value": 0.55, "unit": "%"}, {"measurement": "IC50", "setting": "OATP1B1", "value": "> 100", "unit": "µM"}, {"measurement": "inhibition at 1 h, 100 µM", "setting": "OATP1B1", "value": 39, "unit": "%"}, {"measurement": "Maximum inhibition at highest test conc. (% of control)", "setting": "OATP1B3; 100 µM", "value": "minimal to no inhibition"}, {"measurement": "IC50 (μM)", "setting": "OATP1B3", "value": "NIO"}, {"measurement": "inhibition at 1 h, 100 µM", "setting": "OATP1B3", "value": 0, "unit": "%"}]}, {"smiles": "O=C(NCc1c(F)cc(F)c(OS(=O)(=O)O)c1F)c1cn2c(c(O)c1=O)C(=O)N1C(C2)O[C@@H]2CC[C@H]1C2", "note": "(stereo partly drawn) [Metabolite M20]", "values": [{"measurement": "% of Total Radioactivity in AUC Pooled Plasma", "setting": "[1]", "value": 11.3, "unit": "%"}, {"measurement": "% of Total Radioactivity in AUC Pooled Plasma", "setting": "[2]", "value": 0.77, "unit": "%"}, {"measurement": "IC50", "setting": "OATP1B1", "value": 90.1, "unit": "µM"}, {"measurement": "inhibition at 1 h, 100 µM", "setting": "OATP1B1", "value": 54, "unit": "%"}, {"measurement": "Maximum inhibition at highest test conc. (% of control)", "setting": "OATP1B3", "value": "minimal to no inhibition"}, {"measurement": "IC50 (μM)", "setting": "OATP1B3", "value": "NIO"}, {"measurement": "inhibition at 1 h, 100 µM", "setting": "OATP1B3", "value": 18, "unit": "%"}]}, {"smiles": "O=C(NCc1c(F)cc(F)c(O)c1F)c1cn2c(c(O)c1=O)C(=O)N1[C@H]3CC[C@H](C3)O[C@@H]1C2", "note": "[Metabolite M23]", "values": [{"measurement": "% of Total Radioactivity in AUC Pooled Plasma", "setting": "[1]", "value": 2.36, "unit": "%"}, {"measurement": "IC50", "setting": "OATP1B1", "value": 99.9, "unit": "µM"}, {"measurement": "inhibition at 1 h, 100 µM", "setting": "OATP1B1", "value": 51, "unit": "%"}, {"measurement": "Maximum inhibition at highest test conc. (% of control)", "setting": "OATP1B3", "value": "minimal to no inhibition"}, {"measurement": "IC50 (μM)", "setting": "OATP1B3", "value": "NIO"}, {"measurement": "inhibition at 1 h, 100 µM", "setting": "OATP1B3", "value": 20, "unit": "%"}]}]}
